The results in this text go back to patent US20250304911A1, “CYSTEINE PROTOTROPHY” (Pfizer Inc., priority 2022, published 2025).

Molecules are shown by their SMILES.

Series [1] deals with CBS+CTH cells (CHO cell pools overexpressing CBS and CTH). Kind of series: Growth of CBS+CTH cell pool in L-homocysteine supplemented cysteine free CD CHO medium. Format: cell-based, Chinese hamster. To be noted: FIG. 4. As to the method: (§1) Next, the growth of CHO cell pools overexpressing CBS and CTH (referred to as “CBS+CTH” cells) or overexpressing CBS, CTH and GNMT (referred to as “GNMT” cells) was evaluated in cysteine free CD CHO medium or L-homocysteine supplemented cysteine free CD CHO medium. […] Subsequently, as described in more detail in Example 7, the CBS+CTH and the GNMT cell pools were adapted to grow in L-homocysteine free conditions. For both the CBS+CTH and GNMT cell pools, gene expression levels of CTH, CBS, GNMT and MTR were measured before and after adaptation to L-homocysteine free conditions (Table 5).

Series [2] concerns GNMT cells (CHO cell pools overexpressing CBS, CTH and GNMT). Kind of series: Growth of GNMT cell pool in L-homocysteine supplemented cysteine free CD CHO medium. Format: cell-based, Chinese hamster. As to conditions: FIG. 4. The procedure: as §1
A further series deals with GNMT clone 15. In words: pH-adjusted fedbatch culture with Fer1, OA or Vitamin K1, GNMT clone 15. Format: cell-based, Chinese hamster. As to conditions: for Viabilities by the end of the culture, treated versus untreated: 1 uM Fer1 or 10 uM OA on days 0, 5 and 6, FIG. 11A. As to the method: (§2) Two GNMT clones (overexpressing CBS, CTH and GNMT), clone 15 and 19, were cultivated in pH-adjusted fedbatch cultures in multiple shake flasks. Cells were seeded at 0.5E6 cell/mL in cysteine-free internal basal medium and were fed with 1% cysteine-free, nutrient rich medium daily starting day 4. For the first set of shake flasks, cultures for each clone were treated with 1 uM of Fer1 or 10 uM of OA on days 0, 5 and 6, or left untreated. For the second set of shake flasks, cultures for each clone were treated with 10 uM of Vitamin K1 on days, 0, 4, 5 and 6. Viable cell densities and viabilities were measured on various days during the fedbatch culture.

A further series has as its system GNMT clone 19. Kind of series: pH-adjusted fedbatch culture with Fer1, OA or Vitamin K1, GNMT clone 19. As to conditions: 10 uM Vitamin K1 on days 0, 4, 5 and 6, FIG. 11B. Format: cell-based, Chinese hamster. As to the method: as §2
The next series concerns GNMT cell pool. Kind of series: Sequential batch culture of GNMT cell pool with or without BME. The class given is cell-based, Chinese hamster. To be noted: cysteine-free CD-CHO, 50 uM BME, within one passage, FIG. 8. As to the method:
(§3) GNMT cell pools and CBS+CTH cell pools that had been adapted to grown in cysteine-free and homocysteine-free conditions as described in Example 7 were cultivated in 3-day or 4-day sequential batch cultures in cysteine-free CD-CHO media with or without 50 uM BME with the aim of testing the growth and adapting the cells to BME free conditions.

The test system of the next series is CBS+CTH cell pool. Kind of series: Sequential batch culture of CBS+CTH cell pool with or without BME. Format: cell-based, Chinese hamster. To be noted: cysteine-free CD-CHO, 50 uM BME, FIG. 8. As to the method:
as §3

The next series concerns GNMT clone 9. Kind of series: Batch shake flask maintenance culture with oleic acid and ferroptosis inducers, GNMT clone 9. To be noted: for Viable Cell Density / Viability: Clone 9. As to the method:
(§4) Two GNMT clones, clone 9 and 16, were cultivated for two passages in cysteine-free CD-CHO medium with and without oleic acid. In the oleic acid supplemented conditions, first passage received 1 micromolar (uM) of oleic acid and the second passage received 10 uM of oleic acid. In the third passage, the clones were cultivated in absence of OA but growth in presence of ferroptosis inducers, iron (12 uM ferrous sulphate) and zinc (10 uM zinc sulfate) to understand impact of prior culture in OA on ferroptosis.

For another series, the system named is GNMT clone 16. Kind of series: Batch shake flask maintenance culture with oleic acid and ferroptosis inducers, GNMT clone 16. To be noted: for Viable Cell Density / Viability: Clone 16; for Growth and viability in iron and zinc supplemented cultures compared to untreated: 12 uM ferrous sulphate, 10 uM zinc sulfate, with or without prior OA. As to the method: as §4

[3] abbreviates: +10 uM OA (prior passages), Day 0, CD CHO alone, + 12 uM FeSO4 or + 10 uM ZnSO4.
The mark [4] stands for this setting: +10 uM OA (prior passages), Day 3, CD CHO alone, + 12 uM FeSO4 or + 10 uM ZnSO4.
Where [5] appears, read: +10 uM OA (prior passages), Day 4, CD CHO alone, + 12 uM FeSO4 or + 10 uM ZnSO4.
The mark [6] stands for this setting: No OA, Day 0, CD CHO + 12 uM FeSO4 or + 10 uM ZnSO4.
Where [7] appears, read: No OA, Day 3, CD CHO + 12 uM FeSO4 or + 10 uM ZnSO4.
The mark [8] stands for this setting: No OA, Day 4, CD CHO + 12 uM FeSO4 or + 10 uM ZnSO4.

Turning to `NC(CCS)C(=O)O` [L-homocysteine, 2-amino-4-sulfanylbutanoic acid], the “Growth in L-homocysteine supplemented cysteine free medium” value in series [1] and in series [2] was “exhibited growth” each time.
With `CC1=C(C/C=C(\C)CCC[C@H](C)CCC[C@H](C)CCCC(C)C)C(=O)c2ccccc2C1=O` [Vitamin K1], the “Growth and viability with Vitamin K1 supplementation” value in the series on GNMT clone 15 (10 uM Vitamin K1 on days 0, 4, 5 and 6, FIG. 11B) was “improved growth and viability”; in the series on GNMT clone 19, “improved growth and viability”.
Take `OCCS` [BME, beta mercaptoethanol]: the “Growth and viability in BME free conditions versus with BME” value in the series with GNMT cell pool is reported as “comparable”. Also, in the series on CBS+CTH cell pool, the “Growth and viabilities between BME-free and BME containing conditions” value was “significantly different growth and viabilities”.
As to `CCCCCCCC/C=C\CCCCCCCC(=O)O` [OA, oleic acid], the “Viable Cell Density” value in the series on GNMT clone 9 (setting [3]) was 3.85 E5 c/mL; with GNMT clone 9 (setting [4]), 21.99 E5 c/mL; in the series on GNMT clone 9 (setting [5]), 42.9 E5 c/mL; in the series on GNMT clone 16 (setting [3]), 4.44 E5 c/mL; in the series on GNMT clone 16 (setting [4]), 22.52 E5 c/mL; in the series on GNMT clone 16 (setting [5]), 48.33 E5 c/mL. The “Benefit of exposure to OA on growth and viability” value in the series with GNMT clone 9 (clone 9, third passage, prior passages with 1 uM then 10 uM oleic acid) is reported as “not observed”. Besides, the “Growth and viabilities of OA exposed versus unexposed conditions” value with GNMT clone 16 (clone 16, third passage, prior passages with 1 uM then 10 uM oleic acid) was “higher growth and viabilities”. Besides, in the series on GNMT clone 15, the “Viabilities by the end of the culture, treated versus untreated” value is “slightly higher viabilities”.
As to `CCOC(=O)c1ccc(NC2CCCCC2)c(N)c1` [Fer1, ferrostatin 1], in the series on GNMT clone 15, the “Viabilities by the end of the culture, treated versus untreated” value is listed as “slightly higher viabilities”.
On to `O=S(=O)([O-])[O-].[Fe+2]` [FeSO4, ferrous sulphate], for which the Viability is listed as 99.6% in the series on GNMT clone 9 (setting [3]); 99.2% in the series with GNMT clone 9 (setting [4]); 99.1% in the series with GNMT clone 9 (setting [5]); 100% with GNMT clone 9 (setting [6]); 99.2% with GNMT clone 9 (setting [7]); 99.3% in the series on GNMT clone 9 (setting [8]). Also, the Viability in the series on GNMT clone 16 (setting [3]) was found to be 99.6%; with GNMT clone 16 (setting [4]), 98.6%; in the series with GNMT clone 16 (setting [5]), 99.2%; in the series with GNMT clone 16 (setting [6]), 98.7%; in the series with GNMT clone 16 (setting [7]), 98.5%; in the series with GNMT clone 16 (setting [8]), 99.1%. Besides, the “Viable Cell Density” value in the series with GNMT clone 9 (setting [3]) was 3.45 E5 c/mL; in the series on GNMT clone 9 (setting [4]), 21.94 E5 c/mL; in the series with GNMT clone 9 (setting [5]), 38.38 E5 c/mL; in the series on GNMT clone 9 (setting [6]), 3.54 E5 c/mL; in the series on GNMT clone 9 (setting [7]) it was 19.65 E5 c/mL; in the series with GNMT clone 9 (setting [8]), 39.74 E5 c/mL. The “Viable Cell Density” value in the series on GNMT clone 16 (setting [3]) was 3.63 E5 c/mL; in the series on GNMT clone 16 (setting [4]), 19.21 E5 c/mL; in the series on GNMT clone 16 (setting [5]) it was 40.8 E5 c/mL; with GNMT clone 16 (setting [6]) it was 4.02 E5 c/mL; in the series with GNMT clone 16 (setting [7]), 14.07 E5 c/mL; with GNMT clone 16 (setting [8]), 31.09 E5 c/mL. For the same molecule, in the series on GNMT clone 16 (clone 16, third passage), the “Growth and viability in iron and zinc supplemented cultures compared to untreated” value is listed as “lower”.
Regarding `O=S(=O)([O-])[O-].[Zn+2]` [ZnSO4, zinc sulfate], the Viability in the series with GNMT clone 9 (setting [3]) was found to be 98.9%; in the series with GNMT clone 9 (setting [4]) it was 97.7%; in the series on GNMT clone 9 (setting [5]), 96.4%; with GNMT clone 9 (setting [6]), 100%; in the series on GNMT clone 9 (setting [7]) it was 97.9%; in the series on GNMT clone 9 (setting [8]), 96.7%. Moreover, the Viability is on record as 99.6% in the series with GNMT clone 16 (setting [3]); 96.2% in the series on GNMT clone 16 (setting [4]); 96% with GNMT clone 16 (setting [5]); 99.2% in the series with GNMT clone 16 (setting [6]); 94.9% with GNMT clone 16 (setting [7]); 94.1% in the series on GNMT clone 16 (setting [8]). The “Viable Cell Density” value in the series on GNMT clone 9 (setting [3]) is reported as 3.11 E5 c/mL; in the series with GNMT clone 9 (setting [4]), 16.78 E5 c/mL; in the series on GNMT clone 9 (setting [5]), 30.16 E5 c/mL; in the series on GNMT clone 9 (setting [6]) it was 3.55 E5 c/mL; with GNMT clone 9 (setting [7]), 17.26 E5 c/mL; in the series with GNMT clone 9 (setting [8]), 32.29 E5 c/mL. Besides, the “Viable Cell Density” value is 3.84 E5 c/mL in the series with GNMT clone 16 (setting [3]); 13.62 E5 c/mL in the series on GNMT clone 16 (setting [4]); 32.19 E5 c/mL in the series on GNMT clone 16 (setting [5]); 4.31 E5 c/mL with GNMT clone 16 (setting [6]); 12.27 E5 c/mL in the series with GNMT clone 16 (setting [7]); 23.99 E5 c/mL with GNMT clone 16 (setting [8]). Besides, the “Growth and viability in iron and zinc supplemented cultures compared to untreated” value in the series on GNMT clone 16 (clone 16, third passage) is “lower”.
